Experimental data: patent US4385055A, “2-Acetyl-and 2-propionylpyridine thiosemicarbazones as antimalarials” (The United States of America as represented by the …, priority 1981, dated 1983)
≈ marks a conversion by molar mass, not a printed value. Like-named read-outs stand apart in the source and are kept apart here.

Columns and labels:
Mycobacterium smegmatis = experiment: MIC against Mycobacterium smegmatis strains (Test 4); format: cell-based; conditions: Mycolicibacterium smegmatis, read-out: Minimum Inhibitory Concentration
Experimental: Compounds were tested against four strains of Mycobacterium smegmatis. The test procedure used was as mentioned by N. E. Morrison [Int. J. of Leprosy 39:34-43 (1971)]. The strain numbers refer to Mycobacterium smegmatis ATCC 607, a DDS-resistant daughter strain, a Rifampin-resistant daughter strain, and a Clofazimine-resistant daughter strain, respectively.

[1] = system: Mycobacterium intracellulare; experiment: Broth dilution MIC, Mycobacterium intracellulare strains (Test 6); format: cell-based; conditions: read-out: Minimum Inhibitory Concentration
[2] = system: Plasmodium berghei KBG 173; experiment: In vivo antimalarial activity in mice (Test 5); parameters: key to In vivo Antimalarial Activity: C: Mice surviving 60 days are considered cured; Active: Activity is defined as a 100% increase in the mean survival time of the treated mice compared to the control group; Toxicity is defined as a decrease in the mean survival time of the treated mice as compared to the control group; conditions: for ED50: Plasmodium berghei, computed estimate of the dose required to cure 50% of the mice; for In vivo Antimalarial Activity: mice, C = Cure (cured/treated mice)
Experimental: Compounds were tested against Plasmodium berghei KBG 173 malaria in mice following the procedure described by T. S. Osdene, P. B. Russell, and L. Rane [J. Med. Chem. 10:431-434 (1967)]. Five mice were tested at each dosage level. Mice surviving 60 days are considered cured. Toxicity is defined as a decrease in the mean survival time of the treated mice as compared to the control group. Activity is defined as a 100% increase in the mean survival time of the treated mice compared to the control group.

Neisseria meningitidis = experiment: Macro broth dilution MIC, Neisseria meningitidis isolates (Test 2); format: cell-based; conditions: Neisseria meningitidis, 24 h, read after 24 hours, read-out: Minimum Inhibitory Concentration
Experimental: Compounds were tested against five isolates of Neisseria meningitidis. The bacterial isolates were provided by the Department of Bacterial Diseases of the Walter Reed Army Institute of Research. The test procedure used was the macro broth dilution method in duplicate outlined by J. C. Sherris on pages 414-415 (loc. cit.). The test compounds and controls were prepared as in Test 1 above. Ampicillin and penicillin standards were initially diluted as described by J. C. Sherris on pages 411-412 (loc. cit.) followed by dilution with Mueller-Hinton broth. The tubes were incubated at 37° C. under 5-10% carbon dioxide.

Staphylococcus aureus = experiment: Macro broth dilution MIC, Staphylococcus aureus isolates (Test 1); format: cell-based; conditions: 24 h, read after 24 hours, read-out: Minimum Inhibitory Concentration
Experimental: (§1) Compounds were tested against five isolates of Staphylococcus aureus and five isolates of Group D Enterococcus. The bacteria used were isolated from patients at the Walter Reed Army Medical Center, Washington, D.C. The test procedure used was the macro broth dilution method in duplicate as outlined by J. C. Sherris on pages 414-415 in "Manual of Clinical Microbiology," 2nd ed., E. Lennette, E. H. Spaulding, and J. P. Truant, Ed. (American Society for Microbiology, Washington, D.C., 1974). Each compound was dissolved in DMSO (12.8 mg/mL) and then diluted with Mueller-Hinton broth to obtain the desired dilutions. Tubes containing the highest quantities of DMSO with no compound present were run as controls.

Group D Enterococcus = experiment: Macro broth dilution MIC, Group D Enterococcus isolates (Test 1); format: cell-based; conditions: 24 h, read after 24 hours, read-out: Minimum Inhibitory Concentration
Experimental: as §1

Neisseria gonorrhoeae = experiment: Agar dilution MIC, Neisseria gonorrhoeae isolates (Test 3); format: cell-based; conditions: 24 h, read-out: Minimum Inhibitory Concentration
Experimental: Compounds were tested against six Neisseria gonorrhoeae isolates. The bacteria used were provided by the Department of Bacterial Diseases of the Walter Reed Army Institute of Research. The test procedure used was the agar dilution method in duplicate as outlined by J. C. Sherris on pages 411-412 (loc. cit.). GC Medium (Difco) with a 2% defined supplement added as described by D. S. Kellogg et al. [J. Bact. 85:1274-1279 (1963)] was used as the media. The compounds were dissolved in DMSO (1.0 mg/mL), diluted with GC broth (GC Medium without agar) to the appropriate concentration, and added to the GC Medium at 55°-56° C. The latter was then poured and allowed to solidify. A penicillin standard was also prepared with initial dilutions as described by J. C. Sherris followed by dilutions with GC broth and addition to the GC Medium at 55°-56° C. as above. The inoculum was 1:200 GC broth dilution of a suspension of colony isolates after the suspension was adjusted visually to the turbidity standard described by J. M. Matsen and A. L. Barr on page 422 in "Manual of Clinical Microbiology," 2nd ed., E. Lennette, E. H. Spaulding, and J. P. Truant, Ed. (American Society for Microbiology, Washington, D.C., 1974). The plates were inoculated with a replicator and incubated at 37° C. under 5-10% carbon dioxide.

[3] = Mycobacterium intracellulare strain I
[4] = Mycobacterium intracellulare strain II
[5] = Mycobacterium intracellulare strain III
[6] = Mycobacterium intracellulare strain IV
[7] = Mycobacterium intracellulare strain V
[8] = Mycobacterium intracellulare strain VI
[9] = Neisseria meningitidis isolate 7957
[10] = Neisseria meningitidis isolate 7990
[11] = Neisseria meningitidis isolate 8005
[12] = Neisseria meningitidis isolate 8006
[13] = Neisseria meningitidis isolate 8011
[14] = Group D Enterococcus isolate II
[15] = Group D Enterococcus isolate III
[16] = Group D Enterococcus isolate IV

Row | Compound | MIC (Neisseria meningitidis; [9]) | MIC (Neisseria meningitidis; [10]) | MIC (Neisseria meningitidis; [11]) | MIC (Neisseria meningitidis; [12]) | MIC (Neisseria meningitidis; [13]) | MIC (Group D Enterococcus; Group D Enterococcus isolate I) | MIC (Group D Enterococcus; [14]) | MIC (Group D Enterococcus; [15]) | MIC (Group D Enterococcus; [16]) | MIC (Group D Enterococcus; Group D Enterococcus isolate V) | MIC [1, 3] | MIC [1, 4] | MIC [1, 5] | MIC [1, 6] | MIC [1, 7] | MIC [1, 8] | ED50 [2] | In vivo Antimalarial Activity ([2]; Dosage Level 160 mg/kg) | In vivo Antimalarial Activity ([2]; Dosage Level 640 mg/kg) | further results
1 | CCC1CCCCN1C(=S)NN=C(C)c1ccccn1 (stereo not shown) [AA, 2-Ethylpiperidine-1-thiocarboxylic acid 2-[1-(2-pyridyl)ethylidene]hydrazide] |  |  |  |  |  |  |  |  |  |  | 10 µg/mL (≈ 34.4 µM) | 1 µg/mL (≈ 3.44 µM) | 1 µg/mL (≈ 3.44 µM) | 1 µg/mL (≈ 3.44 µM) | 10 µg/mL (≈ 34.4 µM) | 10 µg/mL (≈ 34.4 µM) | 113 mg/kg |  |  | MIC (Mycobacterium smegmatis; ATCC607, Mycobacterium smegmatis strain I (ATCC 607)): 5 µg/mL (≈ 17.2 µM); MIC (Mycobacterium smegmatis; Mycobacterium smegmatis strain II (DDS-resistant daughter strain)): 10 µg/mL (≈ 34.4 µM); MIC (Mycobacterium smegmatis; Mycobacterium smegmatis strain III (Rifampin-resistant daughter strain)): 10 µg/mL (≈ 34.4 µM); MIC (Mycobacterium smegmatis; Mycobacterium smegmatis strain IV (Clofazimine-resistant daughter strain)): 10 µg/mL (≈ 34.4 µM)
2 | CCOC(=O)N1CCN(C(=S)NN=C(C)c2ccccn2)CC1 [Compound I, 1,4-Diaza-4-carboethoxycyclohexane-1-thiocarboxylic acid 2-[1-(2-pyridyl)ethylidene]hydrazide] |  |  |  |  |  |  |  |  |  |  |  |  |  |  |  |  |  | Toxic | Toxic | In vivo Antimalarial Activity ([2]; Dosage Level 10 mg/kg): Active; In vivo Antimalarial Activity ([2]; Dosage Level 20 mg/kg): Active
3 | CC(=NNC(=S)NC(C)(C)CC(C)(C)C)c1ccccn1 [G, 2-Acetylpyridine 4-(1,1,3,3-tetramethylbutyl)-3-thiosemicarbazone] |  |  |  |  |  | 8 µg/mL (≈ 26.1 µM) | 4 µg/mL (≈ 13.1 µM) | 4 µg/mL (≈ 13.1 µM) | 4 µg/mL (≈ 13.1 µM) | 4 µg/mL (≈ 13.1 µM) |  |  |  |  |  |  |  |  |  | 

Second part, led by results:

Row | MIC (Neisseria meningitidis; [9]) | MIC (Neisseria meningitidis; [10]) | MIC (Neisseria meningitidis; [11]) | MIC (Neisseria meningitidis; [12]) | MIC (Neisseria meningitidis; [13]) | MIC (Group D Enterococcus; Group D Enterococcus isolate I) | MIC (Group D Enterococcus; [14]) | MIC (Group D Enterococcus; [15]) | MIC (Group D Enterococcus; [16]) | MIC (Group D Enterococcus; Group D Enterococcus isolate V) | Compound | MIC [1, 3] | MIC [1, 4] | MIC [1, 5] | MIC [1, 6] | MIC [1, 7] | MIC [1, 8] | ED50 [2] | In vivo Antimalarial Activity ([2]; Dosage Level 160 mg/kg) | In vivo Antimalarial Activity ([2]; Dosage Level 640 mg/kg) | further results
4 | 0.062 µg/mL (≈ 0.224 µM) | 0.062 µg/mL (≈ 0.224 µM) | 0.125 µg/mL (≈ 0.452 µM) | 0.062 µg/mL (≈ 0.224 µM) | 0.5 µg/mL (≈ 1.81 µM) |  |  |  |  |  | CC(=NNC(=S)N1CCCCC1C)c1ccccn1 (stereo not shown) [B, 2-Methylpiperidine-1-thiocarboxylic acid 2-[1-(2-pyridyl)ethylidene]hydrazide] |  |  |  |  |  |  | 57 mg/kg | Active | Toxic | MIC (Staphylococcus aureus; Staphylococcus aureus isolate I): 1 µg/mL (≈ 3.62 µM); MIC (Staphylococcus aureus; Staphylococcus aureus isolate II): 1 µg/mL (≈ 3.62 µM); MIC (Staphylococcus aureus; Staphylococcus aureus isolate III): 1 µg/mL (≈ 3.62 µM); MIC (Staphylococcus aureus; Staphylococcus aureus isolate IV): 1 µg/mL (≈ 3.62 µM); MIC (Staphylococcus aureus; Staphylococcus aureus isolate V): 1 µg/mL (≈ 3.62 µM); In vivo Antimalarial Activity ([2]; Dosage Level 320 mg/kg): Toxic
5 | 0.031 µg/mL (≈ 0.112 µM) | 0.062 µg/mL (≈ 0.224 µM) | 0.062 µg/mL (≈ 0.224 µM) | 0.125 µg/mL (≈ 0.452 µM) | 0.062 µg/mL (≈ 0.224 µM) | 4 µg/mL (≈ 14.5 µM) | 4 µg/mL (≈ 14.5 µM) | 4 µg/mL (≈ 14.5 µM) | 4 µg/mL (≈ 14.5 µM) | 4 µg/mL (≈ 14.5 µM) | CC(=NNC(=S)N1CCCCCC1)c1ccccn1 [H, 1-Azacycloheptane-1-thiocarboxylic acid 2-[1-(2-pyridyl)ethylidene]hydrazide] | 1 µg/mL (≈ 3.62 µM) | 1 µg/mL (≈ 3.62 µM) | 1 µg/mL (≈ 3.62 µM) | 1 µg/mL (≈ 3.62 µM) | 1 µg/mL (≈ 3.62 µM) | 1 µg/mL (≈ 3.62 µM) | 72 mg/kg |  |  | MIC (Neisseria gonorrhoeae; Neisseria gonorrhoeae isolate 135, read after 24 hours): 0.031 µg/mL (≈ 0.112 µM); MIC (Neisseria gonorrhoeae; Neisseria gonorrhoeae isolate 161, read after 24 hours): 0.016 µg/mL (≈ 0.0579 µM); MIC (Neisseria gonorrhoeae; Neisseria gonorrhoeae isolate 278, read after 24 hours): 0.031 µg/mL (≈ 0.112 µM); MIC (Neisseria gonorrhoeae; Neisseria gonorrhoeae isolate 455, read after 24 hours): 0.031 µg/mL (≈ 0.112 µM); MIC (Neisseria gonorrhoeae; Neisseria gonorrhoeae isolate 456, read after 24 hours): 0.016 µg/mL (≈ 0.0579 µM); MIC (Neisseria gonorrhoeae; Neisseria gonorrhoeae isolate 602, read after 24 hours): 0.031 µg/mL (≈ 0.112 µM); In vivo Antimalarial Activity ([2]; Dosage Level 40 mg/kg): Active
